The source of these data is article PMC7693334, “Retrospective assessment of rat liver microsomal stability at NCATS: data and QSAR models” (Scientific Reports, 2020).

The nature of this data set: High-throughput single time point substrate depletion microsomal stability assay. In kind it is in vitro ADME. To be noted: Sprague-Dawley, control compounds, mean ± S.D across 600 plates, 0.5 mg/mL rat microsomal protein, 1.0 μM drug, NADPH regeneration system, pH 7.4, 37 °C, 15 min, t1/2 capped at 30 min. As to the method: Microsomal stability of the test articles was determined in a high-throughput format using the substrate depletion method. […] Sprague-Dawley was chosen because it is the most common strain used in drug discovery. Experiments were performed using a Freedom Evo 200 automated platform with a 96-channel (MCA96) head with EVOware software (version 3.2) (Tecan Inc., Männedorf, Switzerland). The system also includes an Inheco heating block and cooling block (Inheco, Munich, Germany). […] The assay incubation system consisted of 0.5 mg/mL of rat microsomal protein, 1.0 μM drug concentration, and NADPH regeneration system (containing 0.650 mM NADP + , 1.65 mM glucose 6-phosphate, 1.65 mM MgCl2, and 0.2 unit/mL G6PDH) in 100 mM phosphate buffer at pH 7.4. The incubation was carried out at 37 °C for 15 min. The reaction was quenched by adding 555 μL of acetonitrile containing 0.28 μM albendazole, an internal standard. After a 20-min centrifugation at 3000 rpm at 4 °C, 30 μL of the supernatant was transferred to an analysis plate and was diluted fivefold using 1:2 v/v acetonitrile/water. […] The raw data set was preprocessed to generate training and test data for the purpose of building and validating prediction models. […] Detailed steps involved in preprocessing the raw data set are provided in the supplementary information (Table S1).

Each structure is given as a SMILES string.

Regarding `Cc1cc(=O)n(-c2ccccc2)n1C` [Antipyrine, antipyrine], for the setting “microsomes”, the half-life (as a rule, the time in which the quantity being followed falls by half) at 1 μM is above 30 min.
`O=C1CC2(CCCC2)CC(=O)N1CCCCN1CCN(c2ncccn2)CC1` [Buspirone, buspirone] gave a half-life at 1 μM (rat liver microsomes) of 3.8 ± 1.1 min.
`NC(=O)N1c2ccccc2C=Cc2ccccc21` [Carbamazepine, carbamazepine] displayed a half-life at 1 μM (rat liver microsomes) above 30 min.
Still for that read-out and setting: the result for `O=C(O)Cc1ccccc1Nc1c(Cl)cccc1Cl` [Diclofenac, diclofenac] reads 11.4 ± 2.6 min.
Take `CC(C)NCC(O)COc1cccc2ccccc12` (centres unmarked) [Propranolol, propranolol]: the half-life at 1 μM (rat liver microsomes) was 1.4 ± 0.3 min. This half-life at 1 μM lies about 8.1-fold lower than the previous one.
